Marks after values point to notes of the source that are not given here.
Legend:
[1] = test system: Arabidopsis (ecotype Col-0); assay: Drenching application, morphological and yield traits of Arabidopsis in soil; assay type: in vivo
Experimental: To test the effect on wild-type plants Arabidopsis (ecotype Col-0) was grown in soil in controlled conditions in a growth chambre (16 hours light/8 hours dark; light intensity 120 […]; 22° C.; 60% humidity). In the stage of app. the middle of the principal growth stage 1 and the beginning of principal growth stage 5 (according to Arabidopsis growth stages described by Boyes et al., 2001) 1-10 mL of the compound 12 was applied regulary every third day in 0.1 and 1 μM concentration in different application rates (experiment 1-1 mL of 1 μM compound 12 water solution 12-times; experiment 2-10 mL of 0.1 and 1 μM compound 12 water solution 1-, 3- and 5-times) by drenching to each plant pot. DMSO (0.01%) was used as a solvent control. The plants were grown till the end of the generative stage and then morphological parametres (primary inflorescence stem length, number of auxiliary branches, number of lateral branches, fresh shoot biomass, number of flowers, number of siliques) and the seed yield were recorded.

[2] = test system: maize hybrides Amadeo and Zidane; assay: Seed coating, shoot biomass of silage maize (field experiment); assay type: in vivo
Experimental: Based on the results discussed in previous Example 25, field plot experiments were performed on two different locations (Kroměříž Czech Republic; Olomouc, Czech Republic) in years 2012 and 2013 to evaluate the effect of seed coating with compound 12 on biomass formation of maize. In
the season 2012 the seeds of maize (hybrid Amadeo; KWS, FAO 230) were coated with 10 and 50 μM water solution of compound 12 (8 L of solution per 1000 kg of seeds). The seeds were dried and then sown in the sowing rate 90.000 seeds per hectare in 4 replications per each variant in randomized positions (each replication was 10 square meter plot). The plants were harvested when reached the stage of 33-34% of dry mass. The plants were then analyzed for their moisture and standardized dry mass.
The experiment was repeated in the season 2013 with 50 μM concentration of compound 12 in the same experimental design with maize hybrid Zidane (KWS, FAO 250).

Compound: COc1cccc(Nc2nc(Cl)nc3c2ncn3C2CCCCO2)c1 (stereo not drawn) [compound 12, 2-chloro-6-(3-methoxyanilino)-9-(tetrahydropyran-2-yl)purine]
- No. of auxiliary branches ([1]; 0.1 μM, application rate 1x): 4.06 ± 1.3
- No. of auxiliary branches (% of control) ([1]; 0.1 μM, application rate 1x): (113%)
- No. of flowers ([1]; 0.1 μM, application rate 1x): 116.12 ± 70
- No. of flowers (% of control) ([1]; 0.1 μM, application rate 1x): (153%)*
- No. of lateral branches ([1]; 0.1 μM, application rate 1x): 8.59 ± 3.1
- No. of lateral branches (% of control) ([1]; 0.1 μM, application rate 1x): (182%)***
- No. of siliques ([1]; 0.1 μM, application rate 1x): 133.94 ± 47
- No. of siliques (% of control) ([1]; 0.1 μM, application rate 1x): (100%)
- fresh shoot biomass ([1]; 0.1 μM, application rate 1x): 1.18 ± 0.4 g
- fresh shoot biomass (% of control) ([1]; 0.1 μM, application rate 1x): (108%)
- primary inflorescence stem length ([1]; 0.1 μM, application rate 1x): 32.78 ± 5.5 cm
- primary inflorescence stem length (% of control) ([1]; 0.1 μM, application rate 1x): (98%)
- seed yield per plant ([1]; 0.1 μM, application rate 1x): 0.30 ± 0.1 g
- seed yield per plant (% of control) ([1]; 0.1 μM, application rate 1x): (102%)
- No. of auxiliary branches ([1]; 0.1 μM, application rate 3x): 3.82 ± 0.6
- No. of auxiliary branches (% of control) ([1]; 0.1 μM, application rate 3x): (106%)
- No. of flowers ([1]; 0.1 μM, application rate 3x): 91.23 ± 50.1
- No. of flowers (% of control) ([1]; 0.1 μM, application rate 3x): (120%)
- No. of lateral branches ([1]; 0.1 μM, application rate 3x): 8.35 ± 3.3
- No. of lateral branches (% of control) ([1]; 0.1 μM, application rate 3x): (177%)***
- No. of siliques ([1]; 0.1 μM, application rate 3x): 154.29 ± 25.6
- No. of siliques (% of control) ([1]; 0.1 μM, application rate 3x): (115%)
- fresh shoot biomass ([1]; 0.1 μM, application rate 3x): 1.16 ± 0.2 g
- fresh shoot biomass (% of control) ([1]; 0.1 μM, application rate 3x): (106%)
- primary inflorescence stem length ([1]; 0.1 μM, application rate 3x): 39.6 ± 3.8 cm
- primary inflorescence stem length (% of control) ([1]; 0.1 μM, application rate 3x): (119%)***
- seed yield per plant ([1]; 0.1 μM, application rate 3x): 0.31 ± 0.1 g
- seed yield per plant (% of control) ([1]; 0.1 μM, application rate 3x): (106%)
- No. of auxiliary branches ([1]; 0.1 μM, application rate 5x): 3.94 ± 1.1
- No. of auxiliary branches (% of control) ([1]; 0.1 μM, application rate 5x): (109%)
- No. of flowers ([1]; 0.1 μM, application rate 5x): 99.59 ± 59.3
- No. of flowers (% of control) ([1]; 0.1 μM, application rate 5x): (131%)
- No. of lateral branches ([1]; 0.1 μM, application rate 5x): 9.82 ± 4.4
- No. of lateral branches (% of control) ([1]; 0.1 μM, application rate 5x): (208%)***
- No. of siliques ([1]; 0.1 μM, application rate 5x): 141.24 ± 31.7
- No. of siliques (% of control) ([1]; 0.1 μM, application rate 5x): (105%)
- fresh shoot biomass ([1]; 0.1 μM, application rate 5x): 1.18 ± 0.3 g
- fresh shoot biomass (% of control) ([1]; 0.1 μM, application rate 5x): (108%)
- primary inflorescence stem length ([1]; 0.1 μM, application rate 5x): 38.61 ± 5.2 cm
- primary inflorescence stem length (% of control) ([1]; 0.1 μM, application rate 5x): (116%)***
- seed yield per plant ([1]; 0.1 μM, application rate 5x): 0.35 ± 0.1 g
- seed yield per plant (% of control) ([1]; 0.1 μM, application rate 5x): (120%)
- No. of auxiliary branches ([1]; 1 μM, application rate 1x): 4.29 ± 1.5
- No. of auxiliary branches (% of control) ([1]; 1 μM, application rate 1x): (119%)
- No. of flowers ([1]; 1 μM, application rate 1x): 139.65 ± 51.7
- No. of flowers (% of control) ([1]; 1 μM, application rate 1x): (184%)***
- No. of lateral branches ([1]; 1 μM, application rate 1x): 13.35 ± 4.7
- No. of lateral branches (% of control) ([1]; 1 μM, application rate 1x): (283%)***
- No. of siliques ([1]; 1 μM, application rate 1x): 134.82 ± 31.1
- No. of siliques (% of control) ([1]; 1 μM, application rate 1x): (100%)
- fresh shoot biomass ([1]; 1 μM, application rate 1x): 1.17 ± 0.3 g
- fresh shoot biomass (% of control) ([1]; 1 μM, application rate 1x): (107%)
- primary inflorescence stem length ([1]; 1 μM, application rate 1x): 32.66 ± 3.8 cm
- primary inflorescence stem length (% of control) ([1]; 1 μM, application rate 1x): (98%)
- seed yield per plant ([1]; 1 μM, application rate 1x): 0.37 ± 0.1 g
- seed yield per plant (% of control) ([1]; 1 μM, application rate 1x): (126%)
- No. of auxiliary branches ([1]; 1 μM, application rate 3x): 4.29 ± 1.1
- No. of auxiliary branches (% of control) ([1]; 1 μM, application rate 3x): (119%)*
- No. of flowers ([1]; 1 μM, application rate 3x): 118.53 ± 36.6
- No. of flowers (% of control) ([1]; 1 μM, application rate 3x): (156%)***
- No. of lateral branches ([1]; 1 μM, application rate 3x): 13.50 ± 3.9
- No. of lateral branches (% of control) ([1]; 1 μM, application rate 3x): (286%)***
- No. of siliques ([1]; 1 μM, application rate 3x): 155.29 ± 44.1
- No. of siliques (% of control) ([1]; 1 μM, application rate 3x): (116%)
- fresh shoot biomass ([1]; 1 μM, application rate 3x): 1.23 ± 0.3 g
- fresh shoot biomass (% of control) ([1]; 1 μM, application rate 3x): (113%)
- primary inflorescence stem length ([1]; 1 μM, application rate 3x): 39.07 ± 3.2 cm
- primary inflorescence stem length (% of control) ([1]; 1 μM, application rate 3x): (117%)***
- seed yield per plant ([1]; 1 μM, application rate 3x): 0.36 ± 0.1 g
- seed yield per plant (% of control) ([1]; 1 μM, application rate 3x): (122%)
- No. of auxiliary branches ([1]; 1 μM, application rate 5x): 4.50 ± 1.3
- No. of auxiliary branches (% of control) ([1]; 1 μM, application rate 5x): (125%)
- No. of flowers ([1]; 1 μM, application rate 5x): 143.56 ± 66.3
- No. of flowers (% of control) ([1]; 1 μM, application rate 5x): (189%)***
- No. of lateral branches ([1]; 1 μM, application rate 5x): 16.44 ± 6.1
- No. of lateral branches (% of control) ([1]; 1 μM, application rate 5x): (349%)***
- No. of siliques ([1]; 1 μM, application rate 5x): 220.00 ± 37.4
- No. of siliques (% of control) ([1]; 1 μM, application rate 5x): (164%)***
- fresh shoot biomass ([1]; 1 μM, application rate 5x): 1.81 ± 0.3 g
- fresh shoot biomass (% of control) ([1]; 1 μM, application rate 5x): (166%)***
- primary inflorescence stem length ([1]; 1 μM, application rate 5x): 44.66 ± 5.9 cm
- primary inflorescence stem length (% of control) ([1]; 1 μM, application rate 5x): (134%)***
- seed yield per plant ([1]; 1 μM, application rate 5x): 0.33 ± 0.1 g
- seed yield per plant (% of control) ([1]; 1 μM, application rate 5x): (111%)
- overall shoot biomass ([1]; experiment 1: 1 mL of 1 μM, 12-times, drenching, FIG. 8): stimulation of the overall shoot biomass
- increase of fresh shoot biomass compared to control ([1]; experiment 2, higher doses): 6-22%
- increase of number of auxiliary branches compared to control ([1]; experiment 2, higher doses): 6-25%
- increase of number of flowers compared to control ([1]; experiment 2, higher doses): 20-89%
- increase of number of lateral branches compared to control ([1]; experiment 2, higher doses): 77-249%
- increase of number of siliques compared to control ([1]; experiment 2, higher doses): 5-66%
- increase of primary inflorescence stem length compared to control ([1]; experiment 2, higher doses): 16-34%
- increase of seed yield compared to control ([1]; experiment 2, higher doses): 6-26%
- Absolute dry matter yield ([2]; 10 μM, Kroměříž, 2012): 23.06 t/ha
- Absolute green matter yield ([2]; 10 μM, Kroměříž, 2012): 52.19 t/ha
- Height before harvest ([2]; 10 μM, Kroměříž, 2012): 276.6 cm
- Height before harvest (% of control) ([2]; 10 μM, Kroměříž, 2012): 101.0 % of control
- Relative dry matter yield (% of control) ([2]; 10 μM, Kroměříž, 2012): 110.85 % of control
- Absolute dry matter yield ([2]; 10 μM, Olomouc, 2012): 17.01 t/ha
- Absolute green matter yield ([2]; 10 μM, Olomouc, 2012): 43.20 t/ha
- Height before harvest ([2]; 10 μM, Olomouc, 2012): 237.3 cm
- Height before harvest (% of control) ([2]; 10 μM, Olomouc, 2012): 98.3 % of control
- Relative dry matter yield (% of control) ([2]; 10 μM, Olomouc, 2012): 110.94 % of control
- average silage yield counted from all trials ([2]; 10 μM, counted from 2 trials): 110.9%
- Absolute dry matter yield ([2]; 50 μM, Kroměříž, 2012): 22.18 t/ha
- Absolute green matter yield ([2]; 50 μM, Kroměříž, 2012): 49.52 t/ha
- Height before harvest ([2]; 50 μM, Kroměříž, 2012): 273.5 cm
- Height before harvest (% of control) ([2]; 50 μM, Kroměříž, 2012): 99.8 % of control
- Relative dry matter yield (% of control) ([2]; 50 μM, Kroměříž, 2012): 106.63 % of control
- Absolute dry matter yield ([2]; 50 μM, Kroměříž, 2013): 22.33 t/ha
- Absolute green matter yield ([2]; 50 μM, Kroměříž, 2013): 66.47 t/ha
- Relative dry matter yield (% of control) ([2]; 50 μM, Kroměříž, 2013): 107.82* % of control
- Absolute dry matter yield ([2]; 50 μM, Olomouc, 2012): 17.80 t/ha
- Absolute green matter yield ([2]; 50 μM, Olomouc, 2012): 44.31 t/ha
- Height before harvest ([2]; 50 μM, Olomouc, 2012): 235.8 cm
- Height before harvest (% of control) ([2]; 50 μM, Olomouc, 2012): 97.7 % of control
- Relative dry matter yield (% of control) ([2]; 50 μM, Olomouc, 2012): 116.06 % of control
- Absolute dry matter yield ([2]; 50 μM, Olomouc, 2013): 19.23 t/ha
- Absolute green matter yield ([2]; 50 μM, Olomouc, 2013): 68.78 t/ha
- Height before harvest ([2]; 50 μM, Olomouc, 2013): 246.4 cm
- Height before harvest (% of control) ([2]; 50 μM, Olomouc, 2013): 100.8 % of control
- Relative dry matter yield (% of control) ([2]; 50 μM, Olomouc, 2013): 101.33 % of control
- average silage yield counted from all trials ([2]; 50 μM, counted from 3 trials): 105.3%
- effect on the plant height ([2]; seed treatment, all field plot experiments): without any effect on the plant height

Source: US10662194B2, “Substituted 6-anilino-9-heterocyclylpurine derivatives for inhibition of plant stress” (UNIVERZITA PALACKEHO V OLOMOUCI, priority 2014, dated 2020)
